These results are taken from publication PMC5004293, “Characterization of FRM-36143 as a new γ-secretase modulator for the potential treatment of familial Alzheimer’s disease” (Alzheimer's Research & Therapy, 2016).

The subject of series [1] is DHCR24. The note with it: cited from earlier work.
The target in another series is T1, Aβ42 (Homo sapiens, UniProt P05067).
T1 construct: purchased AnaSpec
Put plainly: Aβ aggregation assay (thioflavin T). The following applies: 10 μM peptide, 25 °C, 18 h. The method, then: Aβ peptides (AnaSpec, Fremont, CA, USA) were dissolved at a concentration of 1 mg/mL in hexafluoroisopropanol (HFIP). Peptides were then mixed at different molar ratios. HFIP was evaporated in a SpeedVac without heating for 15 min. Peptides and mixtures were kept on ice and reconstituted in 50 mM Tris–HCl, 1 mM EDTA. Peptides (final concentration: 10 μM) were added to thioflavin T (final concentration: 2.5 μM; AnaSpec) in a black 96-well plate. Aggregation was monitored on a SpectraMax M5 plate reader (Molecular Devices, Inc.) at a constant temperature of 25 °C using excitation/emission of 440 nm/480 nm. Readings were recorded in triplicate every 10 min for a period of 18 h.

In series [2] the target is T2, DHCR24 (Homo sapiens, UniProt Q15392).
T2 construct: endogenous in cells; host or cells: HepG2 cells
T2 sequence (Q15392 23-516): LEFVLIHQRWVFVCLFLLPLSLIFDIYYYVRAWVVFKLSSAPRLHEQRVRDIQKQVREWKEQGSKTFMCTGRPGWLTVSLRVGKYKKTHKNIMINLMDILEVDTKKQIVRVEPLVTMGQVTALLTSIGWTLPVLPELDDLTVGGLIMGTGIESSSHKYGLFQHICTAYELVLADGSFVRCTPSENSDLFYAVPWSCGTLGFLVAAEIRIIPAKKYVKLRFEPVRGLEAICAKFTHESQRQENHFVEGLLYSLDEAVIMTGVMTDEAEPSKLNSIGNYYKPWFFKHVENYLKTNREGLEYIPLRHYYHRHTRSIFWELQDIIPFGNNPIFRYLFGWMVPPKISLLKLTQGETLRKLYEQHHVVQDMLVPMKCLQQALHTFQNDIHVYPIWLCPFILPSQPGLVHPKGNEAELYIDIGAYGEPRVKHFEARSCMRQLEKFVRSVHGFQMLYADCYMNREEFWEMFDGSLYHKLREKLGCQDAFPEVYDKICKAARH
Put plainly: Desmosterol assay in HepG2 cells. It counts as cell-based. Here is the method:
HepG2 cells were grown in Eagle's minimal essential medium (EMEM) containing 10 % fetal bovine serum, penicillin (50 U/mL), and streptomycin (50 ug/mL) and plated at a density of 1 million cells/well in 6-well plates for the experiment. Four to five days after plating, the cells were washed with Hank’s balanced salt solution (HBSS), and compound treatment applied for 2 h in HBSS. At the end of the treatment, cells were collected, washed with PBS, and pelleted. Sterols were extracted from the cell pellet by adding 100 μL PBS and 3 mL ethylacetate (containing an internal standard of 1 mg/mL d-cholesterol). Tubes were vortexed for 20 min and centrifuged at 2000 × g for 20 min at room temperature. The organic phase was dried under a stream of nitrogen at 40 °C and the samples reconstituted in 65 % methanol. Liquid chromatography-tandem mass spectrometry (LC-MS/MS) analysis was performed using a Shimadzu 20-series UFLC (Shimadzu, Kyoto, Japan) and an API 5500 (Applied Biosystems, Foster City, CA, USA) with a Hypersil GOLD column (100X2.1 mM; Thermo Fisher).

On the set-up of series [3]: method as in PMID 24085193. The note with it: animals; takes 12–14 weeks to appear; cited from earlier work.
The subject of the next series is Notch processing. Briefly: Notch reporter assay (HeLa 6xCBF1-Luc, NotchΔE). It counts as cell-based, human. The note with it: overnight. Here is the method: The wild-type CBF1 binding element was cloned in front of the SV40 promoter-driven luciferase reporter construct of pGL3pro (Promega, Madison, WI, USA) using the following oligonucleotides: • CBF1 Fw (5’→3’): […] • CBF1 Rv (5’→3’): […]
Oligonucleotides were phosphorylated using T4 polynucleotide kinase and annealed (by heating to 90 °C and cooling to room temperature in a buffer containing 0.1 M NaCl). Plasmid pGL3pro was cleaved with BglII and dephosphorylated using alkaline phosphatase. The oligonucleotide pair was then ligated using T4 ligase with the linearized plasmid DNA. A clone containing 6 copies of the CBF1 element in front of the SV40 promoter was chosen. The 6xCBF1-RE/SV40 promoter was excised from pGL3 using XhoI and HindIII, and the fragment transferred to the pGL4.17 [luc2/Neo] vector (Promega) was opened with the same restriction enzymes.
The full length human Notch in plasmid pCMV6-XL5 (Origene, Rockville, MD, USA) was used to amplify a truncated form of Notch (NotchΔE) containing the 20-amino-acid (a.a.) signal sequence followed by 5 a.a. […]
HeLa cells stably transfected with the 6xCBF1-Luc reporter were transiently transfected with the NotchΔE construct (4 μg DNA/10^6 cells) using Lipofectamine 2000 (Thermo Fisher, Waltham, MA, USA) in 6-well plates. […] Chemiluminescence was then read on an EnVision plate reader (Perkin Elmer).

The term IC50 denotes the concentration at which inhibition is half-maximal. Low readings indicate inhibition by little substance, high ones a need for much substance.

T1 sequence (P05067 672-713 limits assumed): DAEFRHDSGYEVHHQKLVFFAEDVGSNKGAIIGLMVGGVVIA

As to `COc1nc(/C=C/c2nc3n(n2)CCC[C@H]3c2ccccc2C(F)(F)F)ccc1-n1cnc(C)c1` [E2212], the DHCR24 off-target activity entry with DHCR24 [1] is “did not have this off-target activity”.

On to “Aβ42: Aβ peptide (AnaSpec) used in the aggregation assay”, for which, in the series with Aβ42, the “Increase in aggregates over time (thioflavin T fluorescence)” value is recorded as over 15 fold.

On to `COc1cc(/C=C2\CCCN([C@@H](C)c3ccc(F)cc3)C2=O)ccc1-n1cnc(C)c1` [E2012], for which, in the series on DHCR24 [1], the “Inhibition of DHCR24” value was “inhibit”. Further, the “Desmosterol induction (change from DMSO)” value on DHCR24 [2] (1 μM) is ~ 60 fold. Moreover, the IC50 against DHCR24 [2] (desmosterol accumulation, 2 h) was 63 nM. Also, the Lenticular opacity result in series [3] is on record as “cause lenticular opacity”.

Take `C[C@H](NC(=O)[C@@H](O)c1cc(F)cc(F)c1)C(=O)N[C@@H]1C(=O)N(C)c2ccccc2-c2ccccc21` [LY-411,575, reference compound]: the concentration for half-maximal inhibition (IC50) in the series on Notch processing is 0.9 nM.
